The target of one assay is NADPH oxidase 1 (Homo sapiens, UniProt Q9Y5S8). The format is functional, cell-based.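 Note: Cell-based assay with luminescence read-out, IC50 derived from inhibitor dose-response curves; intracellular ROS from endogenous NOX1 in intact HT29 colon cancer cells; potency of inhibitors that lower the ROS luminescence signal.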
The nature of assay [1]: inhibitors of firefly luciferase expression or activity, dose response, H4 neuroglioma cells, luminescence (AID 1990). The format is functional, cell-based.
A short description of assay [2]: luciferase reporter signal reduction – luminescence, H4-C neuroglioblastoma cells, dose response (AID 2458).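 Note: H4 neuroglioblastoma cells stably carrying a luciferase reporter gene fusion.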 The format is functional, cell-based.
Assay [3] concerns Streptococcus sp. 'group A'. As to the kind of experiment: growth inhibition of control SK(-) GAS strain, dose response, counter-screen for streptokinase expression inhibitor project, luminescence, kanamycin, BacTiterGlo, confirmation (AID 1900). It counts as functional, organism-based. For orientation: Counterscreens check selectivity or assay interference.
A short description of a further assay: cells. The format is functional, cell-based.
The nature of assay [4]: inhibitors of SNCA 5'UTR-driven reporter translation, confirmation, H4 neuroglioma cells, luminescence (AID 1988). It counts as functional, cell-based.
The next assay concerns the target T1, Streptokinase A (Streptococcus pyogenes serotype M1, UniProt P10520).
T1 sequence (P10520 whole entry): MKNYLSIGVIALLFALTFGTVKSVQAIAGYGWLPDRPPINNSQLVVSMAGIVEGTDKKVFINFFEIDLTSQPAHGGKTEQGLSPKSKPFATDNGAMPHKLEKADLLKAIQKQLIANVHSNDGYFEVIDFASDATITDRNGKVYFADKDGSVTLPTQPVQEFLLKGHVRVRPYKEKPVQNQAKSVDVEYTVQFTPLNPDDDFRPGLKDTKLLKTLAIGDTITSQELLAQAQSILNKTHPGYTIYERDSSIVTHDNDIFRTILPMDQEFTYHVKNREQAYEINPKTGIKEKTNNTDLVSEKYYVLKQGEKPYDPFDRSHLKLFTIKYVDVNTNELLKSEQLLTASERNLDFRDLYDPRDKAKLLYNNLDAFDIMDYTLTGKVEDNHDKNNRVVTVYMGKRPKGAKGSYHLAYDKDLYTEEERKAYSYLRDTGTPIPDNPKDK
Description: S. pyogenes streptokinase expression inhibitors, potency, dose response, plasminogen activation absorbance, OD405 (AID 1914).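 Note: secreted streptokinase activity via plasminogen activation per viability signal from cell pellet.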 It counts as functional, Streptococcus pyogenes M1 GAS.

The target in a further assay is T2, Estrogen receptor (Homo sapiens, UniProt P03372).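 Note: potency for inhibiting coactivator peptide recruitment to the receptor.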
T2 sequence (P03372 whole entry): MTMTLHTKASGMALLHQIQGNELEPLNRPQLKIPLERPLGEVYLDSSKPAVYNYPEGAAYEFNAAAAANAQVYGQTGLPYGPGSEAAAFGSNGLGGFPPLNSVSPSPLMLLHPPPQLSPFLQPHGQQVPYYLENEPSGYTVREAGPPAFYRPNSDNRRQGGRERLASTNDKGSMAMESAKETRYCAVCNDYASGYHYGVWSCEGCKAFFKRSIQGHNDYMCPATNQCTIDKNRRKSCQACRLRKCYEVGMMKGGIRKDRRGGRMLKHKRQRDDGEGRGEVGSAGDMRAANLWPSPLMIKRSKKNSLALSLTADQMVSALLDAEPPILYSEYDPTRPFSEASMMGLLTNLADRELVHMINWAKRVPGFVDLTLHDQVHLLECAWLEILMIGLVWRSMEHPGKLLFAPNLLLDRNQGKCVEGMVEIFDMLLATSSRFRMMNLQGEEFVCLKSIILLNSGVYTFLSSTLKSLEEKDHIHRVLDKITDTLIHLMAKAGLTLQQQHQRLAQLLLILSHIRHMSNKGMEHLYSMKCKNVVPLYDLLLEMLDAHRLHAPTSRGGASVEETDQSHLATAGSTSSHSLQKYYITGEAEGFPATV

The subject of a further assay is Streptococcus. Description: Group A Streptococcus viability loss, dose response, counter-screen for streptokinase expression inhibitor project, luminescence, BacTiterGlo (AID 1915).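 Note: potency for reduction of bacterial viability or growth.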 The format is functional, organism-based.
Assay [5] in a line: inhibitors of SNCA 5'UTR-driven translation, confirmation, luminescence, H4 neuroglioblastoma cells, dose confirmation (AID 2454).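 Note: H4 neuroglioblastoma cells carrying an alpha-synuclein 5'UTR luciferase reporter; potency for inhibition of the luciferase signal.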 The format is functional, cell-based.
The subject of a further assay is HeLa. As to the kind of experiment: Cytotoxicity counterscreen assay for transcriptional activators of heat shock protein 70 (Hsp70). [Related pubchem assays: 1203, 1252 ]. The format is functional. The settings on record: Homo sapiens.
Assay [6] deals with T3, Microphthalmia-associated transcription factor (Homo sapiens, UniProt O75030).
T3 sequence (O75030 whole entry): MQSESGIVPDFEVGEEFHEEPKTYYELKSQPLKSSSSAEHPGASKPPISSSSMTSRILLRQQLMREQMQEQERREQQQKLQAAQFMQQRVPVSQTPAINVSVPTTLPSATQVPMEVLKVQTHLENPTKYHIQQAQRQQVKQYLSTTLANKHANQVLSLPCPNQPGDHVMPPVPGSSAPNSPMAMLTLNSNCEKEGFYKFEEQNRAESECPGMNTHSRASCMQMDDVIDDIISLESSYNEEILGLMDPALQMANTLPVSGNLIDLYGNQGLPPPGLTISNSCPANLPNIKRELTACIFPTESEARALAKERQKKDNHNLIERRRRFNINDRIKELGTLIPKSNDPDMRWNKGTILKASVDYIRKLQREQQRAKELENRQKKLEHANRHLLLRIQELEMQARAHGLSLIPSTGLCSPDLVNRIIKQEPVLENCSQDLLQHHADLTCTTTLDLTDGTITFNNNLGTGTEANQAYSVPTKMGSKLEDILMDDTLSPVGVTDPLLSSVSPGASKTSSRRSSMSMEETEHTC
As to the kind of experiment: TRPM1 promoter luciferase signal decrease, dose response, MITF inhibitor project, cell-based, SK-MEL-5, cherry-picked, set 3 (AID 493073).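 Note: SK-MEL-5 melanoma cells with luciferase driven by the MITF target TRPM1 promoter.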 The format is functional.

A short description of assay [7]: Shn3 3'UTR reporter inhibitors, dose response, cell-based, Clone20 osteoblasts, firefly luciferase, cherry-picked (AID 624132).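 Note: firefly luciferase luminescence from reporter carrying the Shn3 3'UTR in osteoblasts.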 The format is functional.
Assay [8] can be described thus: HepG2 cell cytotoxicity, dose response, cytotoxicity control for Shn3 inhibitor project, CellTiter-Glo, cherry-picked (AID 624134). The format is functional, cell-based. (In general: Cellular ATP, detected with luciferase, serves as a proxy for viable cell number.)
Assay [9] is described as follows: control 3'UTR Renilla luciferase suppression, dose response, counter-screen for Shn3 inhibitor project, cell-based, Clone20-Shn3RL, cherry-picked (AID 624133). The format is functional.
Assay [10] can be described thus: A549 cell cytotoxicity, dose response, cytotoxicity control, cherry-picks, 26 µM top dose (AID 1053119). The format is functional, cell-based.
Assay [11] in a line: Luminescence-based counterscreen assay for KLF5 inhibitors: dose response cell-based high throughput screening assay to identify cytotoxic compounds using the IEC-6 intestinal epithelial cell line. [Related pubchem assays: 1700 (Primary screen.), 1834 (Confirmation screen.), 1858 (Summary AID.), 1905 (Counterscreen.)]. It counts as functional.
Assay [12] deals with G2/mitotic-specific cyclin-B1 (Homo sapiens, UniProt P14635). Description: Counterscreen assay for inhibitors of Wee1 degradation: dose response cell-based assay to identify inhibitors of cyclin B degradation. [Related pubchem assays: 1410, 1321 ]. It counts as functional.
Sequence of G2/mitotic-specific cyclin-B1 (P14635 whole entry): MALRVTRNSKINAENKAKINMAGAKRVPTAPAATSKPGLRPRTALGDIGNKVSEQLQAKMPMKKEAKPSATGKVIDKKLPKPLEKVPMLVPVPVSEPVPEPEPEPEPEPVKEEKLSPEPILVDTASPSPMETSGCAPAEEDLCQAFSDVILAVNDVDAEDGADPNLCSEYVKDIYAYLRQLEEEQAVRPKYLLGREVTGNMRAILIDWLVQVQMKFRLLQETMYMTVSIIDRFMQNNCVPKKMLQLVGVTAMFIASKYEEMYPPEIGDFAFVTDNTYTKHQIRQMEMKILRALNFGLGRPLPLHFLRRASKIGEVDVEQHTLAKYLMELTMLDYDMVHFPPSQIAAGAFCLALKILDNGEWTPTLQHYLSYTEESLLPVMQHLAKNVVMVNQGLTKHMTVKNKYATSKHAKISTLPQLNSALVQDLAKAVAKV
A further assay addresses Wee1-like protein kinase (Homo sapiens, UniProt P30291). As to the kind of experiment: Dose Response Cell-based Assay for Inhibitors of Wee1 Degradation. [Related pubchem assays: 1410, 1321 ]. It counts as functional.
The target of assay [13] is 5-hydroxytryptamine receptor 1E (Homo sapiens, UniProt P28566). Description: Counterscreen assay for S1P3 antagonists: Dose response cell-based high throughput screening assay to identify antagonists of the 5-Hydroxytryptamine Receptor Subtype 1E (5HT1E). [Related pubchem assays: 1429, 485 ]. It counts as functional.
Sequence of 5-hydroxytryptamine receptor 1E (P28566 whole entry): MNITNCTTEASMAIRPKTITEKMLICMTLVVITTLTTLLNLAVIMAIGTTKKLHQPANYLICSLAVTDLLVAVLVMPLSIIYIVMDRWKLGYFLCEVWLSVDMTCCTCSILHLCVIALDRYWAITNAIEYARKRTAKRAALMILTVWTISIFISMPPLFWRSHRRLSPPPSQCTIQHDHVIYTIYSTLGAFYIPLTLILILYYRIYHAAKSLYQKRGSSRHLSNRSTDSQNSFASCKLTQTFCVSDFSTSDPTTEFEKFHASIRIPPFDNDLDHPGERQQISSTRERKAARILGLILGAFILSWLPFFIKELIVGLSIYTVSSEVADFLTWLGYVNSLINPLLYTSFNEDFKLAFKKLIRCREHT
Assay [14] deals with Sphingosine 1-phosphate receptor 3 (Homo sapiens, UniProt Q99500). Description: Dose response cell-based high throughput screening assay for antagonists of the Sphingosine 1-Phosphate Receptor 3 (S1P3). [Related pubchem assays: 1429, 485 ]. It counts as functional.
Sequence of Sphingosine 1-phosphate receptor 3 (Q99500 whole entry): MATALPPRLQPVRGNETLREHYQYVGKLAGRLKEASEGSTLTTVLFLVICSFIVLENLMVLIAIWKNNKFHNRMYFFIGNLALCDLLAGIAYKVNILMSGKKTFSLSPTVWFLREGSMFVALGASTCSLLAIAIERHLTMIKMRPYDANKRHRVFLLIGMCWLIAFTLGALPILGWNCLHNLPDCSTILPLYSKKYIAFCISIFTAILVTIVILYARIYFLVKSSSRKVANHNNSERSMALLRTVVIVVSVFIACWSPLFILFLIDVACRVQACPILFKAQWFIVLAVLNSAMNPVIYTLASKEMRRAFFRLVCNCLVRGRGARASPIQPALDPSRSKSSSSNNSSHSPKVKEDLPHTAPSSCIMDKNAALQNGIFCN

Activity calls are given as the source filed them. A value given as a limit tells only on which side of the number the result lay.
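Throughout, for CC50: cells exposed to compound for 16 hours before readout.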

Sequence of NADPH oxidase 1 (Q9Y5S8 whole entry): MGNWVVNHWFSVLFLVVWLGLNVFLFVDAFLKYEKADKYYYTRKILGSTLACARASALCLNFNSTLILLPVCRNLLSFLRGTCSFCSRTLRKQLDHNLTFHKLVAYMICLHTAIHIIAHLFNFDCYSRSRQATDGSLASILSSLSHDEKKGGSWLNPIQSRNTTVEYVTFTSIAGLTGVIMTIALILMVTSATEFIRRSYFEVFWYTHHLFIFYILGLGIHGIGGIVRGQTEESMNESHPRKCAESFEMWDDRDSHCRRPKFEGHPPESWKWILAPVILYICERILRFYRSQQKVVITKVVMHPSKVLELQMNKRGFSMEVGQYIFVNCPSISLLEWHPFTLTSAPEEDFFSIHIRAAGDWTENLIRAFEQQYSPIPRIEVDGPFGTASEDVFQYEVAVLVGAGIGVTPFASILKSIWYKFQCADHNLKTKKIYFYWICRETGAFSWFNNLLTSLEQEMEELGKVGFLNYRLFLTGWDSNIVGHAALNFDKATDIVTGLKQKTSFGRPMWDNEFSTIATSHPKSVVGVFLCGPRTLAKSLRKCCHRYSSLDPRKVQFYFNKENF
Sequence of Wee1-like protein kinase (P30291 whole entry): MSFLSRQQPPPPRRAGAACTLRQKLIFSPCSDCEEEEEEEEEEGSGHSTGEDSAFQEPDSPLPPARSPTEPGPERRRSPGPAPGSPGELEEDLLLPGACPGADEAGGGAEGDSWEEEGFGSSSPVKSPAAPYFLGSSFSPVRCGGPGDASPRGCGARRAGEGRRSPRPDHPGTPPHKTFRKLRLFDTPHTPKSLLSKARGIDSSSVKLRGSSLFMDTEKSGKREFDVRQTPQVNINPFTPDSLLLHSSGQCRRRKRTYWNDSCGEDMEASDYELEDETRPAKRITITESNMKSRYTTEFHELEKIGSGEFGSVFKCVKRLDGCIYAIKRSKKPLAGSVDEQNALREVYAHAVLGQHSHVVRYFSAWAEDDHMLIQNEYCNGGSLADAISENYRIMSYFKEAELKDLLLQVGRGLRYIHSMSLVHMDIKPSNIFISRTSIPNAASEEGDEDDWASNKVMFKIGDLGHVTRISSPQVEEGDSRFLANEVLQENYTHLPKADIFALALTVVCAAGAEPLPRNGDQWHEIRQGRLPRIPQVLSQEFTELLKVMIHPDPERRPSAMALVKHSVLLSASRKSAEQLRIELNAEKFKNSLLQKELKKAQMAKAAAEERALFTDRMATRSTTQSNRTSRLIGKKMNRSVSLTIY

Broadly, the IC50 is the concentration needed to halve the response being measured. A higher IC50 goes with weaker potency. With `COc1ccc(-c2nc(-c3ccccc3)c(-c3ccccc3)[nH]2)cc1O`, the IC50 against NADPH oxidase 1 is > 17 µM (not active).
Usually EC50 stands for the concentration at which the effect is half-maximal. With `CN1Cc2cc(C(=O)c3cc(Cl)cc(CSc4ncccn4)c3O)cnc2NC1=O`, the EC50 in assay [1] was < 0.1 µM (active); in [2], 0.449 µM (active); in [3], 13.8 µM (active); in “cells”, 0.812 µM (active); in [4] it was < 0.1 µM (active); on Streptokinase A, > 150 µM (not active). In addition, the EC50 in the assay on Streptococcus is > 150 µM (not active); in [5], 0.799 µM (active). For the same compound, the IC50 against Estrogen receptor is > 50 µM (not active).
For orientation: CC50 means the concentration that lowers cell viability or growth by half. The term AC50 denotes the concentration giving half of the maximal activity seen. As to `CS(=O)(=O)N1CCN(c2ccc(NC(=O)c3ccc([N+](=O)[O-])o3)cc2)CC1`, the CC50 with HeLa was 4.95 µM (active). Also, the AC50 is 4.92 µM (active) in assay [6]; 5.65 µM (active) in assay [7]; 64.6 µM (active) in assay [8]; 7.78 µM (active) in assay [9]; 49.3 µM (active) in [10].
Consider `CCOC(=O)c1sc(NC(=O)c2sc(C)nc2C)nc1C`, for which the IC50 in [11] was > 39.8 µM (not active).
With `CCN(CC)c1ccc(/C=N/NC(=O)c2ccco2)cc1`, the EC50 (in assay [12]; at Wee1-like protein kinase) was > 49.7 µM (not active) throughout.
Regarding `O=C(CSc1nnc(-c2cccnc2)n1Cc1ccco1)N1c2ccccc2Sc2ccccc21`, the IC50 in assay [13] and in assay [14] was > 50 µM (not active) throughout.

These data come from ChEMBL document CHEMBL1201862, “PubChem BioAssay data set” (2004).
